Laboratory results: patent US20230134747A1, “COMPOSITIONS FOR THE TREATMENT OF AUTISM SPECTRUM DISORDER” (STALICLA SA, priority 2020, published 2023)

Columns and labels:
[1] = tested on: human cell lines (A549, ASC, HA1E, HT29, MCF7, PC3, VCAP); experiment: Differential gene expression (QuantSeq RNA sequencing) after bumetanide treatment of cell lines; format: cell-based; settings: 10 uM, 6 or 24 hours, across cell lines
Method: To characterize the cell line invariant mechanism of action, bumetanide was tested across different human cell lines including several cancer cell lines (such as A549, MCF7, PC3, HT29 and VAP) as well as cells from healthy tissues (such as ASC and HA1E). These cell lines (Table 3) were chosen due to their ease of manipulation and suitability for systematic screening. […] Incubation of cell types was performed inside an incubator with a humified atmosphere of 95% and 5% of CO2, and a constant temperature of 37° C. Cells were treated with bumetanide using a dilution of 10 uM for all replicates at a time duration of 6 or 24 hours. [table] Following drug treatment, RNA extracted from each treated cell line was sequenced with QuantSeq with 4-6 million coverage reads per sample in triplicates.

[2] = tested on: patients with idiopathic ASD; experiment: Observational clinical pilot study: earlier oral bumetanide treatment of ASD patients; format: in vivo, human; settings: three patients with idiopathic ASD; oral solution 0.5, 1.0 or 2 mg twice daily for three months
Method: The main goal of this pilot study was to validate the clinical benefit of bumetanide in patients showing clinical signs and symptoms characterizing ASD phenotype 3. First, a custom semi-structured online clinical questionnaire (Questionnaire […] 2021) comprising a total of 38 medical examination questions and 73 medical history questions was administered by a clinician during a remote screening visit (over the phone) that took up to 90 min. This remote screening visit included reviewing detailed medical history and clinical signs and symptoms related to ASD phenotype 3 with the patient/caregiver for a clinical validation. […]

ASD patients = settings: clinical setting; heterogeneous responses reported; cited from earlier work

Compound	DEG ranking after treatment, GNAS ([1]; gene GNAS)	Direction of differential expression, GNAS ([1]; gene GNAS)	DEG ranking after treatment, KCNJ6 ([1]; gene KCNJ6)	DEG ranking after treatment, KCNJ10 ([1]; gene KCNJ10)	DEG ranking after treatment, KCNK3 ([1]; gene KCNK3)	DEG ranking after treatment, KCNQ3 ([1]; gene KCNQ3)	DEG ranking after treatment, KCNV1 ([1]; gene KCNV1)	DEG ranking after treatment, SLC12A5 (KCC2) ([1]; gene SLC12A5 (KCC2))	DEG ranking after treatment, SNAP25 ([1]; gene SNAP25)	Clinical response of ASD patients to treatment [2]	Effect on behaviour in ASD patients (ASD patients)
CCCCNc1cc(C(=O)O)cc(S(N)(=O)=O)c1Oc1ccccc1 [bumetanide, 3-(butylamino)-4-phenoxy-5-sulfamoylbenzoic acid]	1	DOWN	19	113	49	48	165	35	1	shown improvement	–
C[S+]([O-])CCCCN=C=S (centres unmarked) [sulforaphane]	–	–	–	–	–	–	–	–	–	–	improve behaviour in some ASD patients
